Experimental data taken from PubChem BioAssay (NCI).
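Briefly, cells in 96-well plates were exposed to five compound concentrations for 48 h, and endpoints were estimated by linear interpolation. At the TGI there is no net growth.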

Assays:
Experiment in all cases: NCI anticancer screen, dose series, 48 h
[1] = tested on: HCT-15 colon
[2] = tested on: U251 CNS
[3] = tested on: MDA-MB-435
[4] = tested on: ACHN renal
[5] = tested on: UACC-257 melanoma
[6] = tested on: BT-549 breast
[7] = tested on: NCI-H23 lung
[8] = tested on: HT29 colon
[9] = tested on: IGROV1 ovarian
[10] = tested on: RPMI-8226 leukemia

SMILES | TGI [1] [µM] | TGI [2] [µM] | TGI [3] [µM] | TGI [4] [µM] | TGI [5] [µM] | TGI [6] [µM] | TGI [7] [µM] | TGI [8] [µM] | TGI [9] [µM] | TGI [10] [µM]
COc1c(C)c(OC)c2c(c1O)[C@@H]1[C@@H]3Cc4c(OC)c(C)c(OC)c(O)c4[C@H](CNC(=O)c4cnc5ccccc5n4)N3[C@@H](C#N)[C@H](C2)N1C | > 0.0716 | > 0.0361 | 0.00622 | > 0.0414 | 0.00756 | 0.02 | 0.0121 | – | – | –
O=C1C(Br)=C(c2ccccc2)S(=O)c2ccccc21 (centres undefined) | 14.1 | 22.8 | 19.5 | 6.53 | 25.8 | 32.1 | 39.7 | 63.5 | 23.1 | –
COc1c2cc(C(C)(C)C)cc1Cc1cccc(c1O)Cc1cc(C(C)(C)C)cc(c1OC)Cc1cccc(c1O)Cc1cc(C(C)(C)C)cc(c1OC)Cc1cccc(c1O)C2 | > 100 | > 100 | > 100 | > 100 | > 100 | – | – | > 100 | – | > 100
c1ccc2c(Cc3nnc4sc(SSc5nn6c(Cc7c[nH]c8ccccc78)nnc6s5)nn34)c[nH]c2c1 | 53.6 | 58.6 | 47.7 | > 100 | > 100 | – | 34.7 | 44.4 | 27.6 | –
COC(=O)C1(Cc2ccccc2)Cc2ccccc2C1 | > 100 | 73.5 | 41.8 | > 100 | 65.6 | – | > 100 | 41.7 | > 100 | 57.9
COc1ccc(OC)c2c1C1CCC(=O)N1CN2C(C)=O (centres undefined) | > 100 | > 100 | > 100 | > 100 | > 100 | – | > 100 | > 100 | > 100 | > 100
NNC(=S)N1CCN(C(=S)NN)CC1 | – | > 100 | > 100 | > 100 | > 100 | > 100 | > 100 | > 100 | > 100 | > 100
CCOC(=O)C(/C=N\C(=S)Nc1ccc(OCC)cc1)=C(/O)c1ccccc1 | > 100 | > 100 | > 100 | > 100 | > 100 | – | > 100 | > 100 | > 100 | > 100
O=C(NCCCNCCNC(=O)c1cc(-c2ccccc2)nc2ccccc12)c1cc(-c2ccccc2)nc2ccccc12 | 3.23 | 3.24 | 3.15 | 3.3 | 3.08 | 29.4 | – | 2.91 | 3.59 | –
CN(C)CCCOCCn1c2c(c3ccccc31)CCCC2 | 30.5 | 41.8 | 34.2 | 29 | 33.3 | – | 94.6 | 28.5 | 34 | 33.9
O=C(N[C@H]1c2ccsc2/C(=N/O)[C@H]1O)C(F)(F)F | > 100 | > 100 | > 100 | – | > 100 | > 100 | > 100 | > 100 | > 100 | –
NCCCCNCCCNC(=O)c1nc(-c2csc(CCN)n2)sc1Cl | > 100 | > 100 | – | > 100 | > 100 | – | > 100 | > 100 | > 100 | > 100
CC(C)N(C)C(=O)C12C3C4C1C1C2C3C41C#N (centres undefined) | > 100 | > 100 | > 100 | > 100 | > 100 | > 100 | > 100 | > 100 | > 100 | –
C#CCn1c(=O)c(C#N)c(O)c2cc3ccccc3nc21 | > 100 | > 100 | – | – | > 100 | – | > 100 | > 100 | > 100 | > 100
C[N+](C)(C)c1ncnc2c1ncn2C1CCCCO1 (centres undefined) | – | > 100 | > 100 | > 100 | > 100 | > 100 | > 100 | > 100 | > 100 | > 100
COC(=O)[C@@H]1C[C@@]2(C3C=CN(C(=O)C(F)(F)F)C=C3)c3ccccc3N(C(=O)C(F)(F)F)[C@H]2N1C(=O)OC | > 100 | > 100 | > 100 | > 100 | > 100 | > 100 | > 100 | – | > 100 | > 100
CSC1=NS(=O)(=O)c2cc(C(=O)NN(C)C(=O)c3cc4c(cc3Cl)SC(SC)=NS4(=O)=O)c(Cl)cc2S1 | > 10 | > 10 | – | > 10 | > 10 | > 10 | > 10 | > 10 | > 10 | > 10
COc1ccccc1Nc1nc(NNC(=O)Cc2ccccc2)nc(NNC(=O)c2ccncc2)n1 | > 10 | > 10 | – | – | > 10 | > 10 | > 10 | > 10 | > 10 | > 10
CC(=O)c1cc2ccccc2n(O)c1=N | > 100 | > 100 | > 100 | > 100 | > 100 | – | > 100 | > 100 | > 100 | –
CCOc1cc(C2CC(c3ccc(NS(=O)(=O)c4cc([N+](=O)[O-])ccc4C)cc3)=NN2)ccc1O (centres undefined) | 67.3 | – | 85.9 | 76.7 | – | 51.6 | 80.7 | 72.2 | > 100 | > 100
Clc1ccc(N=c2oc3ccccc3cc2-c2nc3ccccc3[nH]2)c(Cl)c1 | > 100 | – | > 100 | > 100 | > 100 | > 100 | > 100 | > 100 | > 100 | > 100
CC(C)OP(=O)(OC(C)C)C(C(C)C)N(C)/C(F)=N/C(F)(F)F (centres undefined) | > 100 | > 100 | > 100 | > 100 | > 100 | > 100 | > 100 | > 100 | > 100 | –
CCc1ccc2c(c1)CC1(C2)Cc2cc3c(cc2C1)C(=O)CC3 (centres undefined) | 67.3 | > 100 | 8.53 | 63.9 | 51.6 | – | 96.6 | 23.9 | > 100 | 50.7
